Test results as given in US7511144B2, “Reverse hydroxamic acid derivatives” (Kaken Pharmaceutical Co., Ltd., priority 2001, dated 2009).

Key:
Format in all cases: biochemical
TACE = biological target: T1, TACE (Homo sapiens, UniProt P78536); experiment: TACE inhibition experiment (in vitro)
T1 construct: made in house; host or cells: mammalian cells or insect cells

Human MMP17 = biological target: T2, Human MMP17 (Homo sapiens, UniProt Q9ULZ9); experiment: MMP17 inhibition test; conditions: concentration required for 50% inhibition of enzyme activity; read-out: IC50 value MMP-17
T2 construct: purchased Calbiochem 475940
T2 sequence (Q9ULZ9 126-300 limits assumed): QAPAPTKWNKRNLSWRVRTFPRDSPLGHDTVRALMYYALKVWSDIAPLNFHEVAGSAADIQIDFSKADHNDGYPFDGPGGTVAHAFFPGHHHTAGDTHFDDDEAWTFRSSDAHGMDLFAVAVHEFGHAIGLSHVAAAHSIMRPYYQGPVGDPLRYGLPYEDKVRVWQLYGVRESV

Human MMP13 = biological target: T3, Human MMP13 (Homo sapiens, UniProt P45452); experiment: MMP13 inhibition experiment; conditions: concentration required for 50% inhibition of enzyme activity; read-out: IC50 value MMP-13
T3 construct: purchased Chemicon CC068

Human MMP2 = biological target: T4, Human MMP2 (Homo sapiens, UniProt P08253); experiment: MMP2 inhibition experiment; conditions: concentration required for 50% inhibition of enzyme activity; read-out: IC50 value MMP-2
T4 construct: purchased Calbiochem 444213
T4 sequence (P08253 110-660): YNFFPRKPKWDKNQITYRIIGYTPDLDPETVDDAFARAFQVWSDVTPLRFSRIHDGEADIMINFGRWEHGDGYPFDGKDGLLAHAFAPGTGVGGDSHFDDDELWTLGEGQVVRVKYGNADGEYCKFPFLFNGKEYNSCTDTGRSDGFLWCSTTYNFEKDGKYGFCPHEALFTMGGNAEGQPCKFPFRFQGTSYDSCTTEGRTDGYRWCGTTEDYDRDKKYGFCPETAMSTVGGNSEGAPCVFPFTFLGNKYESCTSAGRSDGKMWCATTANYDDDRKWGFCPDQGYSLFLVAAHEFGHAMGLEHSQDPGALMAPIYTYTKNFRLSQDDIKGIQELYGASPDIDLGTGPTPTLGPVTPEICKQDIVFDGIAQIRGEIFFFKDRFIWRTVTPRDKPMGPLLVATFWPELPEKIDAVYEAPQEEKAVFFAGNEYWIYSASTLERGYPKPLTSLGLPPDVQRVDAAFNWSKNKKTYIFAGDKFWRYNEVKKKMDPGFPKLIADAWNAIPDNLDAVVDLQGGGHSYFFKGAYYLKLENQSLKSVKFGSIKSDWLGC

Human MMP1 = biological target: T5, Human MMP1 (Homo sapiens, UniProt P03956); experiment: MMP1 inhibition experiment; conditions: read-out: IC50 value MMP-1
T5 construct: purchased Calbiochem 444208
T5 sequence (P03956 100-469): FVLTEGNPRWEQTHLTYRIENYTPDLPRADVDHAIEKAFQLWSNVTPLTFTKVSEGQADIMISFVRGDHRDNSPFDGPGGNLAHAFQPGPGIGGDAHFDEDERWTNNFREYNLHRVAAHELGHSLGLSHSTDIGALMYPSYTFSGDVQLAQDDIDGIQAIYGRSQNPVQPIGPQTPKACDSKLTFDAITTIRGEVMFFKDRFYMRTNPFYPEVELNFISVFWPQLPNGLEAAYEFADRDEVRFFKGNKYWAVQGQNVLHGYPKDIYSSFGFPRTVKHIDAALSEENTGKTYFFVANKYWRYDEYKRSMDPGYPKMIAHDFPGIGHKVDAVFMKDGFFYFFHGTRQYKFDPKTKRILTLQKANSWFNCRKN

Human MMP3 = biological target: T6, Human MMP3 (Homo sapiens, UniProt P08254); experiment: MMP3 inhibition experiment; conditions: concentration required for 50% inhibition of enzyme activity; read-out: IC50 value MMP-3
T6 construct: purchased Calbiochem 444217
How it was run: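 Fluorescence-quenched substrate NFF-3 (MOCAc/Dnp peptide, 20 μM as prepared) cleaved by 5 ng human MMP3 over 5 hours at 37° C, with inhibition measured from substrate fluorescence.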

Human MMP9 = biological target: T7, Human MMP9 (Homo sapiens, UniProt P14780); experiment: MMP9 inhibition experiment; conditions: read-out: IC50 value MMP-9
T7 construct: purchased Calbiochem 444231

Human MMP14 = biological target: T8, Human MMP14 (Homo sapiens, UniProt P50281); experiment: MMP14 inhibition experiment; conditions: concentration required for 50% inhibition of enzyme activity; read-out: IC50 value MMP-14
T8 construct: purchased Biogenesis or Calbiochem 5980-1461 or 475935
How it was run: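 Fluorescence assay: substrate Dnp-Pro-Cha-Gly-Cys(Me)-His-Ala-Lys(Nma)-NH2 (20 μM before equal-volume mixing) incubated at 37° C for 5 hours with 4 ng human MMP14.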

Human MMP8 = biological target: T9, Human MMP8 (Homo sapiens, UniProt P22894); experiment: MMP8 inhibition experiment; conditions: concentration required for 50% inhibition of enzyme activity; read-out: IC50 value MMP-8
T9 construct: purchased Calbiochem 444229
Procedure: MMP inhibition experiment may be carried out using a fluorescent synthetic substrate according to, for example, the methods of Bickett et al. (D. Mark Bickett et al., Anal. Biochem., 1993, 212, 58-64) and Nagase et al. (H. Nagase et al., J. Biol. Chem., 1994, 269, 20952-20957). The methods of inhibition experiments carried out for various MMPs are described below.
Human MMP8 (Calbiochem #444229) in amount of 90 μL (30 ng) was activated by mixing with 10 μL of 10 mM APMA, followed by reaction for 1 hour at 37° C. This enzyme solution in amount of 10 μL was diluted to 90 μL with the assay buffer A, which was added to 90 μL of […] fluorescent substrate (MOCAc-Pro-Leu-Gly-Leu-A2pr(Dnp)-Ala-Arg-NH2, Peptide Institute, Inc., #3163-v) prepared in the assay buffer B, followed by reaction for 5 hours at 37° C.

T1 sequence (P78536 215-824): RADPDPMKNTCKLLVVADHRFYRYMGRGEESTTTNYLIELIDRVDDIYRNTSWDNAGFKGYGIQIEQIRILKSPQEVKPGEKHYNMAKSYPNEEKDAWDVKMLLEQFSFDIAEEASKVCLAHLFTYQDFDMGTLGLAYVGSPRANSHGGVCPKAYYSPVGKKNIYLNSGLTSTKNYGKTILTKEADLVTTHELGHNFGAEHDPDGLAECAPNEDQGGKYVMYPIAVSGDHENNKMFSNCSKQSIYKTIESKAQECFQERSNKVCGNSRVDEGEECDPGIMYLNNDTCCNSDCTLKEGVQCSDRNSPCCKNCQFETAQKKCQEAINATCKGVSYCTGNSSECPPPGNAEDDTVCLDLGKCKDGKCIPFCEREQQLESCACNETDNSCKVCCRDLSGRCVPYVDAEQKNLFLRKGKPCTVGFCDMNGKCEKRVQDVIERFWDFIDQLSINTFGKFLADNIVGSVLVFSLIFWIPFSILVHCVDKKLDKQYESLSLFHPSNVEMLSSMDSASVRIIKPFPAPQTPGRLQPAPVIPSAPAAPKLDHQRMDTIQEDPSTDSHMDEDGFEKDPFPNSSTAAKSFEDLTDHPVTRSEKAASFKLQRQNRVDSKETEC
T7 sequence (P14780 107-707 limits assumed): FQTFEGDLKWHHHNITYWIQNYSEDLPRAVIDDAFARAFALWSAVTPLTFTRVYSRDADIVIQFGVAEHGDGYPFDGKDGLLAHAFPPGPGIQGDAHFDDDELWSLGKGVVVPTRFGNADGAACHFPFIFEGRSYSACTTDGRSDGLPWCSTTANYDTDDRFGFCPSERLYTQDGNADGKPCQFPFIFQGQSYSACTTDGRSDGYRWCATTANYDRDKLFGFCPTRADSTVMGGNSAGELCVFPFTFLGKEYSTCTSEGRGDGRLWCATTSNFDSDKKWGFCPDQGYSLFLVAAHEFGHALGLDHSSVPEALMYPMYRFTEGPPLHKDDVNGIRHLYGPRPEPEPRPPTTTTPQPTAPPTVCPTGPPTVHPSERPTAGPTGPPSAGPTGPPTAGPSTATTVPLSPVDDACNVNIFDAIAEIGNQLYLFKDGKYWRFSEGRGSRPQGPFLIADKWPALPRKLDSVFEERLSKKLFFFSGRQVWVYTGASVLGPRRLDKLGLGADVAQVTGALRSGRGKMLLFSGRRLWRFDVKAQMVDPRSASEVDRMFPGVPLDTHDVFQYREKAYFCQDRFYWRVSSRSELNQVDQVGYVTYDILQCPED
T9 sequence (P22894 101-467): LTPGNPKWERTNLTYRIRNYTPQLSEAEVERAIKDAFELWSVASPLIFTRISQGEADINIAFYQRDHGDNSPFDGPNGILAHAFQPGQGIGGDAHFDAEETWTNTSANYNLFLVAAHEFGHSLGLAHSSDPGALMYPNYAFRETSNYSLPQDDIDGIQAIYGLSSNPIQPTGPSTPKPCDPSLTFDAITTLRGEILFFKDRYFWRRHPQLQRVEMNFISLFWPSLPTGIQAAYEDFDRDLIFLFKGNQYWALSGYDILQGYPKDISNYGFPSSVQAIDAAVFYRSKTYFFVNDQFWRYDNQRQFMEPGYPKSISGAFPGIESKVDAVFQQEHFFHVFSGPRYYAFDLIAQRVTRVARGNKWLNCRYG
T6 sequence (P08254 100-272 limits assumed): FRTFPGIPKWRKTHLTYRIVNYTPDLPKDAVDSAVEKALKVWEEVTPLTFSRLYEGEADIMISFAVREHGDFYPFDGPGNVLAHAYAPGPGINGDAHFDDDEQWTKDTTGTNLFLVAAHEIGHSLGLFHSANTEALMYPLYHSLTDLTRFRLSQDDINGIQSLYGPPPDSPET

IC50 (TACE) | IC50 (Human MMP17) | IC50 (Human MMP13) | IC50 (Human MMP2) | IC50 (Human MMP1) | IC50 (Human MMP3) | IC50 (Human MMP9) | IC50 (Human MMP14) | IC50 (Human MMP8) | SMILES
0.17 µM | 20 µM | 20 µM | 6 µM | 70 µM | 9.7 µM | 43 µM | 37 µM | 68 µM | Cc1ccc(CCC(CS(=O)(=O)c2ccc(OCc3cc(C)nc4ccccc34)cc2)N(O)C=O)cc1 (centres unmarked) [Example I-36]
0.012 µM | 3.4 µM | 17 µM | 12 µM | > 100 µM | 3.1 µM | > 100 µM | 50 µM | 33 µM | Cc1cccc(CCC(CS(=O)(=O)c2ccc(OCc3cc(C)nc4ccccc34)cc2)N(O)C=O)n1 (centres unmarked) [Example I-129]
3.5 µM | 30 µM | 26 µM | 4.2 µM | 92 µM | 50 µM | 32 µM | 38 µM | > 100 µM | Cc1ccccc1C(CS(=O)(=O)c1ccc(OCc2ccc3ccccc3n2)cc1)N(O)C=O (centres unmarked) [Example I-82]
0.032 µM | 0.54 µM | 22 µM | 43 µM | > 100 µM | 1.3 µM | > 100 µM | 50 µM | 25 µM | COCOC1CCC(C)(C(CS(=O)(=O)c2ccc(OCc3cc(C)nc4ccccc34)cc2)N(O)C=O)CC1 (centres unmarked) [Example I-128]
0.23 µM | 40 µM | 31 µM | 20 µM | > 100 µM | 30 µM | > 100 µM | > 100 µM | 32 µM | COCc1cc(COc2ccc(S(=O)(=O)CC(C=C3CCC4(CC3)OCCO4)N(O)C=O)cc2)cc(C)n1 (centres unmarked) [Example I-118]
0.0055 µM | 3.5 µM | 30 µM | 38 µM | > 100 µM | 9 µM | > 100 µM | 70 µM | 60 µM | CC(=C1CCOCC1)C(CS(=O)(=O)c1ccc(OCc2cc(C)nc3ccccc23)cc1)N(O)C=O (centres unmarked) [Example I-15]
0.01 µM | 0.4 µM | 40 µM | 13 µM | > 100 µM | 0.6 µM | > 100 µM | > 100 µM | 25 µM | COCC(=O)N1CCN(CC(CS(=O)(=O)c2ccc(OCc3cc(C)nc4ccccc34)cc2)N(O)C=O)CC1 (centres unmarked) [Example I-53]
0.0025 µM | 2.4 µM | 18 µM | 34 µM | > 100 µM | 4 µM | > 100 µM | 58 µM | 27 µM | Cc1cncc(C(CS(=O)(=O)c2ccc(OCc3cc(C)nc4c(F)cccc34)cc2)N(O)C=O)c1 (centres unmarked) [Example I-150]
0.0083 µM | 0.51 µM | 56 µM | 60 µM | > 100 µM | 2.5 µM | > 100 µM | > 100 µM | 10 µM | Cc1cc(COc2ccc(S(=O)(=O)CC(N(O)C=O)C3(C)CCOCC3)cc2)c2ccccc2n1 (centres unmarked) [Example I-60, N-hydroxy-N-{2-[4-(2-methylquinolin-4-ylmethoxy)benzenesulfonyl]-1-(4-methyltetrahydropyran-4-yl)ethyl}formamide]
0.0078 µM | 1.1 µM | 20 µM | 6.5 µM | > 100 µM | 3 µM | > 100 µM | 60 µM | 42 µM | CCC(CC)CN1CCC(=CC(CS(=O)(=O)c2ccc(OCc3cc(C)nc4ccccc34)cc2)N(O)C=O)CC1 (centres unmarked) [Example I-44]
0.0041 µM | 11 µM | 22 µM | 50 µM | 65 µM | 5.5 µM | 35 µM | 40 µM | 90 µM | Cc1ccc2nc(C)cc(COc3ccc(S(=O)(=O)CC(C=C4CCC(=NO)CC4)N(O)C=O)cc3)c2c1 (centres unmarked) [Example I-75]
0.012 µM | 4.6 µM | 33 µM | > 100 µM | 42 µM | 6 µM | 60 µM | 33 µM | > 100 µM | Cc1ccc(C(C)(CS(=O)(=O)c2ccc(OCc3cc(C)nc4ccccc34)cc2)N(O)C=O)cc1 (centres unmarked) [Example I-57]
0.0022 µM | 0.045 µM | 0.6 µM | 0.63 µM | 35 µM | 0.05 µM | 9 µM | 3.8 µM | 2.65 µM | Cc1cc(COc2ccc(S(=O)(=O)CC(C=C3CCN(C(=O)c4ccccc4)CC3)N(O)C=O)cc2)c2ccccc2n1 (centres unmarked) [Example I-21]
0.012 µM | 1.6 µM | 40 µM | 22 µM | > 100 µM | 1 µM | > 100 µM | > 100 µM | 42 µM | Cc1cc(COc2ccc(S(=O)(=O)CC(CN3CCN(S(C)(=O)=O)CC3)N(O)C=O)cc2)c2ccccc2n1 (centres unmarked) [Example I-52]
0.02 µM | 0.1 µM | 3.2 µM | 4.4 µM | 47 µM | 0.2 µM | 50 µM | 22 µM | 4.1 µM | Cc1cc(COc2ccc(S(=O)(=O)CC(C3CCCN(C(=O)c4ccccc4)C3)N(O)C=O)cc2)c2ccccc2n1 (centres unmarked) [Example I-131]
0.03 µM | 23 µM | 35 µM | 95 µM | > 100 µM | 26 µM | > 100 µM | 90 µM | > 100 µM | Cc1cccc(C(CS(=O)(=O)c2ccc(OCc3cc(C)nc4ccc(F)cc34)cc2)N(O)C=O)n1 (centres unmarked) [Example I-149]
 | 2.2 µM | 32 µM | 28 µM | > 100 µM | 4.2 µM | > 100 µM | 77 µM | 23 µM | Cc1cc(COc2ccc(S(=O)(=O)CC(C=C3CCOCC3)N(O)C=O)cc2)c2ccccc2n1 (single isomer, unassigned) [Example I-33, N-hydroxy-N-{2-[4-(2-methylquinolin-4-ylmethoxy)benzenesulfonyl]-1-(tetrahydropyran-4-ylidenemethyl)ethyl}formamide]
